Test results: PubChem BioAssay AID602211 (Sanford-Burnham Center for Chemical Genomics, 2012)
pIC50: −log10 of the molar value. The source made the active and inactive calls.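 How the source made its calls: active means mean IC50 at or below 10 µM; inactive means the rest.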

System: H9c2 cardiomyocytes, H2O2 protection, ATPLite viability, 2 h
Assay: H2O2-induced H9c2 cell death suppression – ATPLite luminescence, set 2, dose response (AID 602211);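 further: potency is for protection so actives keep ATP signal up against peroxide killing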

## COc1ccc(C(=O)Nc2nc(-c3ccccn3)cs2)cc1S(=O)(=O)N1CCOCC1
  IC50: 11.9 µM (inactive)

## COC(=O)c1cc2c(C)c(C)c3ccccn3c-2c1C(=O)OC
  IC50: > 79 µM (inactive)

## COc1cccc(C(=O)Nc2c(C(N)=O)oc3ccccc23)c1
  pIC50: 5.08

## O=C(c1cc(=O)[nH]c2ccccc12)N1CCN(S(=O)(=O)c2ccc(Cl)cc2)CC1
  pIC50: 5.96

## CCOC(=O)C1=C(C)NC(C)=C(C(=O)OCC)C1C(=O)OCC(=O)NC(C)C
  IC50: 12.9 µM (inactive)

## COc1ccc(OC)c(/C=N/NC(=O)c2cc3c(OC)c(OC)ccc3[nH]2)c1
  pIC50: 5.46

## CC(=O)Nc1ccc(NS(=O)(=O)c2cc(-c3n[nH]c(=O)c4ccccc34)ccc2C)cc1
  pIC50: 5.44

## O=C(NCCN1CCN(c2ccccc2F)CC1)c1cccn2c(=O)c3ccccc3nc12
  pIC50: 5.13

## O=C1NC(Cc2ccc(O)cc2)c2nc3ccc(F)cc3c(=O)n2-c2cc3ccccc3cc21 (stereo not given)
  pIC50: 5.43

## CC(C)(C)OC(=O)N1CCC[C@H]1c1nnc(SCC(=O)Nc2ccc(Br)cc2)o1
  pIC50: 5.23

## Cc1cc(C)c2c(N)c(C(=O)N/N=C/c3cccnc3)sc2n1
  IC50: 12.1 µM (inactive)

## O=C(NC1CCCCC1)C(c1ccc2ncccc2c1)N(Cc1ccccc1)C(=O)c1ccc2c(c1)OCCO2 (stereo not given)
  pIC50: 5.26

## CCOC(=O)C1=C(C)Nc2ccccc2N=C1NC(=O)c1oc2ccccc2c1COC
  pIC50: 5.54

## COc1ccc(-c2csc(NC(=O)c3ccc(OCC(=O)N4CCOCC4)c(OC)c3)n2)cc1OC
  pIC50: 5.61

## COCCCN(Cc1ccco1)C(=O)Cn1ncc2c([nH]c3ccccc32)c1=O
  IC50: 10.9 µM (inactive)
